System: E. coli strain W3110
Assay: Synergy assays: Biolog chemical sensitivity panels with Group IB metal, coefficient of drug interaction (CDI) from relative growth
Format: cell-based
Settings: for CDI (coefficient of drug interaction), copper mixed with biocide: Copper (mM) section; for CDI (coefficient of drug interaction), gold + biocide: Gold (μM)
[1] = 1st of 3 copper concentrations (value not shown), 1st of four biocide concentrations
[2] = 1st of 3 copper concentrations (value not shown), 3rd of four biocide concentrations
[3] = 1st of 3 copper concentrations (value not shown), 4th of four biocide concentrations
[4] = 2nd of 3 copper concentrations (value not shown), 1st of four biocide concentrations
[5] = 2nd of 3 copper concentrations (value not shown), 2nd of four biocide concentrations
[6] = 2nd of 3 copper concentrations (value not shown), 3rd of four biocide concentrations
[7] = 2nd of 3 copper concentrations (value not shown), 4th of four biocide concentrations
[8] = 3rd of 3 copper concentrations (value not shown), 1st of four biocide concentrations
[9] = 3rd of 3 copper concentrations (value not shown), 2nd of four biocide concentrations
[10] = 3rd of 3 copper concentrations (value not shown), 3rd of four biocide concentrations
[11] = 3rd of 3 copper concentrations (value not shown), 4th of four biocide concentrations
[12] = Gold section of Table 5, first of three gold concentrations (μM, value not given), biocide concentration 2 of 4
[13] = Gold section of Table 5, first of three gold concentrations (μM, value not given), biocide concentration 3 of 4
[14] = Gold section of Table 5, first of three gold concentrations (μM, value not given), biocide concentration 4 of 4
[15] = Gold section of Table 5, second of three gold concentrations (μM, value not given), biocide concentration 1 of 4
[16] = Gold section of Table 5, second of three gold concentrations (μM, value not given), biocide concentration 2 of 4
[17] = Gold section of Table 5, second of three gold concentrations (μM, value not given), biocide concentration 3 of 4
[18] = Gold section of Table 5, second of three gold concentrations (μM, value not given), biocide concentration 4 of 4
[19] = Gold section of Table 5, third of three gold concentrations (μM, value not given), biocide concentration 1 of 4
[20] = Gold section of Table 5, third of three gold concentrations (μM, value not given), biocide concentration 2 of 4
[21] = Gold section of Table 5, third of three gold concentrations (μM, value not given), biocide concentration 3 of 4
[22] = Gold section of Table 5, third of three gold concentrations (μM, value not given), biocide concentration 4 of 4
[23] = Silver 0.5 μM, biocide concentration 1 of 4
[24] = Silver 0.5 μM, biocide concentration 2 of 4
[25] = Silver 0.5 μM, biocide concentration 3 of 4
[26] = Silver 0.5 μM, biocide concentration 4 of 4
[27] = Silver 1.0 μM, biocide concentration 1 of 4
[28] = Silver 1.0 μM, biocide concentration 2 of 4
[29] = Silver 1.0 μM, biocide concentration 3 of 4
[30] = Silver 1.0 μM, biocide concentration 4 of 4
[31] = Silver 5.0 μM, biocide concentration 1 of 4
[32] = Silver 5.0 μM, biocide concentration 2 of 4
[33] = Silver 5.0 μM, biocide concentration 3 of 4
[34] = Silver 5.0 μM, biocide concentration 4 of 4
[35] = 1st of 3 copper concentrations (value not shown), 2nd of four biocide concentrations
[36] = Gold section of Table 5, first of three gold concentrations (μM, value not given), biocide concentration 1 of 4
[37] = Gold 50 μM, biocide concentration 4 of 4, E. coli

| Structure (SMILES) | CDI (coefficient of drug interaction), copper mixed with biocide [1] | CDI (coefficient of drug interaction), copper mixed with biocide [2] | CDI (coefficient of drug interaction), copper mixed with biocide [3] | CDI (coefficient of drug interaction), copper mixed with biocide [4] | CDI (coefficient of drug interaction), copper mixed with biocide [5] | CDI (coefficient of drug interaction), copper mixed with biocide [6] | CDI (coefficient of drug interaction) [12] | CDI (coefficient of drug interaction) [13] | CDI (coefficient of drug interaction) [14] | CDI (coefficient of drug interaction) [15] | CDI (coefficient of drug interaction) [16] | CDI (coefficient of drug interaction) [17] | CDI (coefficient of drug interaction) [18] | CDI (coefficient of drug interaction) [19] | CDI (coefficient of drug interaction) [20] | CDI (coefficient of drug interaction) [21] | CDI (coefficient of drug interaction) [22] | CDI [26] | CDI [30] | CDI [34] | also measured |
| --- | --- | --- | --- | --- | --- | --- | --- | --- | --- | --- | --- | --- | --- | --- | --- | --- | --- | --- | --- | --- | --- |
| CN[C@H]1C[C@@H](N)[C@H](O)[C@@H](O[C@@H]2O[C@H](CO)[C@H](O)[C@@H]3OC4(O[C@H]23)O[C@H]([C@@H](N)CO)[C@H](O)[C@H](O)[C@H]4O)[C@@H]1O (stereo partly drawn) [hygromycin B] | 1.19 | 0.89 | 0.61 | 0.80 | 0.81 | 1.02 | 0.82 | Tox | Tox | 0.96 | 1.13 | Tox | Tox | 0.97 | 1.27 | Tox | Tox | Tox | Tox | Tox | CDI (coefficient of drug interaction), copper mixed with biocide [7]: Tox; CDI (coefficient of drug interaction), copper mixed with biocide [8]: 0.91; CDI (coefficient of drug interaction), copper mixed with biocide [9]: 0.79; CDI (coefficient of drug interaction), copper mixed with biocide [10]: 0.77; CDI (coefficient of drug interaction), copper mixed with biocide [11]: 0.94; CDI [23]: 1.26; CDI [24]: 2.06; CDI [25]: Tox; CDI [27]: 0.63; CDI [28]: 1.47; CDI [29]: Tox; CDI [31]: 0.03; CDI [32]: 0.37; CDI [33]: Tox |
| CCCCCCCCCCCC[N+](C)(C)CCCS(=O)(=O)O [lauryl sulfobetaine] | 0.96 | 0.80 | 0.21 | 0.60 | 1.39 | 0.72 | 1.26 | 0.86 | 0.99 | 0.96 | 0.87 | 1.00 | 1.09 | 1.13 | 1.04 | 0.96 |  |  |  |  | CDI (coefficient of drug interaction), copper mixed with biocide [35]: 1.18; CDI (coefficient of drug interaction), copper mixed with biocide [7]: 0.48; CDI (coefficient of drug interaction), copper mixed with biocide [8]: 0.48; CDI (coefficient of drug interaction), copper mixed with biocide [9]: 0.80; CDI (coefficient of drug interaction), copper mixed with biocide [10]: 0.34; CDI (coefficient of drug interaction), copper mixed with biocide [11]: 0.07; CDI (coefficient of drug interaction) [36]: 0.86; CDI (coefficient of drug interaction), silver + biocide (Silver 0.5 μM, 1st of four biocide concentrations, E. coli): 0.83; CDI (coefficient of drug interaction), silver + biocide (Silver 0.5 μM, 2nd of four biocide concentrations, E. coli): 0.56; CDI (coefficient of drug interaction), silver + biocide (Silver 0.5 μM, 3rd of four biocide concentrations, E. coli): Tox; CDI (coefficient of drug interaction), silver + biocide (Silver 0.5 μM, 4th of four biocide concentrations, E. coli): Tox; CDI (coefficient of drug interaction), silver + biocide (Silver 1.0 μM, 1st of four biocide concentrations, E. coli): 0.91; CDI (coefficient of drug interaction), silver + biocide (Silver 1.0 μM, 2nd of four biocide concentrations, E. coli): 0.79; CDI (coefficient of drug interaction), silver + biocide (Silver 1.0 μM, 3rd of four biocide concentrations, E. coli): Tox; CDI (coefficient of drug interaction), silver + biocide (Silver 1.0 μM, 4th of four biocide concentrations, E. coli): Tox; CDI (coefficient of drug interaction), silver + biocide (Silver 5.0 μM, 1st of four biocide concentrations, E. coli): 1.42; CDI (coefficient of drug interaction), silver + biocide (Silver 5.0 μM, 2nd of four biocide concentrations, E. coli): 1.41; CDI (coefficient of drug interaction), silver + biocide (Silver 5.0 μM, 3rd of four biocide concentrations, E. coli): Tox; CDI (coefficient of drug interaction), silver + biocide (Silver 5.0 μM, 4th of four biocide concentrations, E. coli): Tox |
| O=C1C=C(O)C(=O)c2ccccc21 [lawsone] |  |  |  |  |  |  |  |  | Tox |  |  |  | Tox |  |  |  | Tox | Tox | Tox | Tox |  |
| O=C(O)CI [lodoacetate] |  |  |  |  |  |  | Tox | Tox | Tox | 1.00 | Tox | Tox | Tox | 0.88 | Tox | Tox | Tox |  |  |  | CDI (coefficient of drug interaction) [36]: 0.77 |
| CCn1cc(C(=O)O)c(=O)c2cc(F)c(N3CCNC(C)C3)c(F)c21 (stereo not drawn) [lomefloxacin] |  |  |  |  |  |  |  |  |  |  |  |  |  |  |  |  |  |  |  |  | CDI (coefficient of drug interaction) [37]: Tox |
| C[n+]1ccc(-c2cc[n+](C)cc2)cc1 [methyl viologen] | 0.85 | Tox | Tox | 0.63 | 0.77 | Tox | 1.07 | 0.82 | 0.08 | 1.01 | 1.01 | 0.66 | 0.78 | 1.04 | 0.98 | 0.50 | 0.28 | Tox | Tox | Tox | CDI (coefficient of drug interaction), copper mixed with biocide [35]: 0.99; CDI (coefficient of drug interaction), copper mixed with biocide [7]: Tox; CDI (coefficient of drug interaction), copper mixed with biocide [8]: 0.61; CDI (coefficient of drug interaction), copper mixed with biocide [9]: 0.64; CDI (coefficient of drug interaction), copper mixed with biocide [10]: Tox; CDI (coefficient of drug interaction), copper mixed with biocide [11]: Tox; CDI (coefficient of drug interaction) [36]: 0.99; CDI [23]: 0.89; CDI [24]: 0.73; CDI [25]: Tox; CDI [27]: 0.48; CDI [28]: 0.20; CDI [29]: Tox; CDI [31]: 0.07; CDI [32]: 0.01; CDI [33]: Tox |
| O=C1CN(/N=C/c2ccc([N+](=O)[O-])o2)C(=O)N1 [nitrofurantoin] |  |  |  |  |  |  |  |  |  |  |  |  |  |  |  |  |  |  |  |  | CDI (coefficient of drug interaction) [37]: Tox |
| CCn1cc(C(=O)O)c(=O)c2cc(F)c(N3CCNCC3)cc21 [norfloxacin] |  |  |  |  |  |  |  |  |  |  |  |  |  |  |  |  |  |  |  |  | CDI (coefficient of drug interaction) [37]: Tox |
| Cc1onc(-c2ccccc2)c1C(=O)N[C@@H]1C(=O)N2[C@@H]1SC(C)(C)[C@@H]2C(=O)O [oxacillin] |  |  |  |  |  |  |  |  |  |  |  |  |  |  |  |  |  | Tox | Tox | Tox | CDI (coefficient of drug interaction) (Copper (mM), 1st of 3 copper concentrations (head line not shown), biocide concentration 3 of 4, E. coli): Tox; CDI (coefficient of drug interaction) (Copper (mM), 1st of 3 copper concentrations (head line not shown), biocide concentration 4 of 4, E. coli): Tox; CDI (coefficient of drug interaction) (Copper (mM), 2nd of 3 copper concentrations (head line not shown), biocide concentration 3 of 4, E. coli): Tox; CDI (coefficient of drug interaction) (Copper (mM), 2nd of 3 copper concentrations (head line not shown), biocide concentration 4 of 4, E. coli): Tox; CDI (coefficient of drug interaction) (Copper (mM), 3rd of 3 copper concentrations (head line not shown), biocide concentration 3 of 4, E. coli): Tox; CDI (coefficient of drug interaction) (Copper (mM), 3rd of 3 copper concentrations (head line not shown), biocide concentration 4 of 4, E. coli): Tox; CDI (coefficient of drug interaction), gold + biocide (first of 3 gold concentrations, biocide concentration 4 of 4): Tox; CDI (coefficient of drug interaction), gold + biocide (second of 3 gold concentrations, biocide concentration 4 of 4): Tox; CDI (coefficient of drug interaction), gold + biocide (third of 3 gold concentrations, biocide concentration 4 of 4): Tox; CDI [25]: Tox; CDI [29]: Tox; CDI [33]: Tox |
